Test results as given in ChEMBL document CHEMBL1697781, “Assessment of the health effects of chemicals in humans: II. Construction of an adverse effects database for QSAR modeling” (Curr Drug Discov Technol, 2004).

Columns and labels:
Conditions in all cases: human; call rule not given here
Hepatotoxicity [1] = assay: FDA HLAED, liver enzyme composite activity
Hepatotoxicity [2] = assay: FDA HLAED, gamma-glutamyl transferase (GGT) increase
Hepatotoxicity [3] = assay: FDA HLAED, alkaline phosphatase increase
Hepatotoxicity [4] = assay: FDA HLAED, serum glutamic oxaloacetic transaminase (SGOT) increase
Hepatotoxicity [5] = assay: FDA HLAED, serum glutamic pyruvic transaminase (SGPT) increase
Hepatotoxicity [6] = assay: FDA HLAED, lactate dehydrogenase (LDH) increase
For GGT Increase - Index Value in this document: reference of the scale not given here.
For LDH Increase - Index Value in this document: reference of the scale not given here.

Structure (SMILES): CC1=C(/C=C/C(C)=C/C=C/C(C)=C\C(=O)O)C(C)(C)CCC1 [ISOTRETINOIN]
- Composite Activity - Active (Hepatotoxicity [1]): 4
- Composite Activity - Marginal (Hepatotoxicity [1]): 0
- Composite Activity - Score (Hepatotoxicity [1]): Active
- GGT Increase - Activity Score (Hepatotoxicity [2]): Inactive
- GGT Increase - Index Value (Hepatotoxicity [2]): 0
- GGT Increase - Number of Reports (Hepatotoxicity [2]): < 4
- Alkaline Phosphatase Increase - Activity Score (Hepatotoxicity [3]): Active
- Alkaline Phosphatase Increase - Index Value (Hepatotoxicity [3]): 45.7
- Alkaline Phosphatase Increase - Number of Reports (Hepatotoxicity [3]): >= 4
- SGOT Increase - Activity Score (Hepatotoxicity [4]): Active
- SGOT Increase - Index Value (Hepatotoxicity [4]): 98.4
- SGOT Increase - Number of Reports (Hepatotoxicity [4]): >= 4
- SGPT Increase - Activity Score (Hepatotoxicity [5]): Active
- SGPT Increase - Index Value (Hepatotoxicity [5]): 63.7
- SGPT Increase - Number of Reports (Hepatotoxicity [5]): >= 4
- LDH Increase - Activity Score (Hepatotoxicity [6]): Active
- LDH Increase - Index Value (Hepatotoxicity [6]): 54
- LDH Increase - Number of Reports (Hepatotoxicity [6]): >= 4

Structure (SMILES): COC(=O)C1=C(C)NC(C)=C(C(=O)OC(C)C)C1c1cccc2nonc12 (stereo not drawn) [ISRADIPINE]
- Composite Activity - Active (Hepatotoxicity [1]): 0
- Composite Activity - Marginal (Hepatotoxicity [1]): 0
- Composite Activity - Score (Hepatotoxicity [1]): Inactive
- GGT Increase - Activity Score (Hepatotoxicity [2]): Inactive
- GGT Increase - Index Value (Hepatotoxicity [2]): 0.2
- GGT Increase - Number of Reports (Hepatotoxicity [2]): < 4
- Alkaline Phosphatase Increase - Activity Score (Hepatotoxicity [3]): Inactive
- Alkaline Phosphatase Increase - Index Value (Hepatotoxicity [3]): 0.5
- Alkaline Phosphatase Increase - Number of Reports (Hepatotoxicity [3]): < 4
- SGOT Increase - Activity Score (Hepatotoxicity [4]): Inactive
- SGOT Increase - Index Value (Hepatotoxicity [4]): 0.8
- SGOT Increase - Number of Reports (Hepatotoxicity [4]): >= 4
- SGPT Increase - Activity Score (Hepatotoxicity [5]): Inactive
- SGPT Increase - Index Value (Hepatotoxicity [5]): 0.7
- SGPT Increase - Number of Reports (Hepatotoxicity [5]): >= 4
- LDH Increase - Activity Score (Hepatotoxicity [6]): Inactive
- LDH Increase - Index Value (Hepatotoxicity [6]): 0.3
- LDH Increase - Number of Reports (Hepatotoxicity [6]): < 4

Structure (SMILES): CCC(C)n1ncn(-c2ccc(N3CCN(c4ccc(OCC5COC(Cn6cncn6)(c6ccc(Cl)cc6Cl)O5)cc4)CC3)cc2)c1=O (stereo not drawn) [ITRACONAZOLE]
- Composite Activity - Active (Hepatotoxicity [1]): 5
- Composite Activity - Marginal (Hepatotoxicity [1]): 0
- Composite Activity - Score (Hepatotoxicity [1]): Active
- GGT Increase - Activity Score (Hepatotoxicity [2]): Active
- GGT Increase - Index Value (Hepatotoxicity [2]): 14.1
- GGT Increase - Number of Reports (Hepatotoxicity [2]): >= 4
- Alkaline Phosphatase Increase - Activity Score (Hepatotoxicity [3]): Active
- Alkaline Phosphatase Increase - Index Value (Hepatotoxicity [3]): 12.4
- Alkaline Phosphatase Increase - Number of Reports (Hepatotoxicity [3]): >= 4
- SGOT Increase - Activity Score (Hepatotoxicity [4]): Active
- SGOT Increase - Index Value (Hepatotoxicity [4]): 19.6
- SGOT Increase - Number of Reports (Hepatotoxicity [4]): >= 4
- SGPT Increase - Activity Score (Hepatotoxicity [5]): Active
- SGPT Increase - Index Value (Hepatotoxicity [5]): 19.8
- SGPT Increase - Number of Reports (Hepatotoxicity [5]): >= 4
- LDH Increase - Activity Score (Hepatotoxicity [6]): Active
- LDH Increase - Index Value (Hepatotoxicity [6]): 5.8
- LDH Increase - Number of Reports (Hepatotoxicity [6]): >= 4

Structure (SMILES): CC(=O)N1CCN(c2ccc(OCC3COC(Cn4ccnc4)(c4ccc(Cl)cc4Cl)O3)cc2)CC1 (stereo not drawn) [KETOCONAZOLE]
- Composite Activity - Active (Hepatotoxicity [1]): 3
- Composite Activity - Marginal (Hepatotoxicity [1]): 0
- Composite Activity - Score (Hepatotoxicity [1]): Active
- GGT Increase - Activity Score (Hepatotoxicity [2]): Inactive
- GGT Increase - Index Value (Hepatotoxicity [2]): 0
- GGT Increase - Number of Reports (Hepatotoxicity [2]): < 4
- Alkaline Phosphatase Increase - Activity Score (Hepatotoxicity [3]): Active
- Alkaline Phosphatase Increase - Index Value (Hepatotoxicity [3]): 5.4
- Alkaline Phosphatase Increase - Number of Reports (Hepatotoxicity [3]): >= 4
- SGOT Increase - Activity Score (Hepatotoxicity [4]): Active
- SGOT Increase - Index Value (Hepatotoxicity [4]): 14.7
- SGOT Increase - Number of Reports (Hepatotoxicity [4]): >= 4
- SGPT Increase - Activity Score (Hepatotoxicity [5]): Active
- SGPT Increase - Index Value (Hepatotoxicity [5]): 10.7
- SGPT Increase - Number of Reports (Hepatotoxicity [5]): >= 4
- LDH Increase - Activity Score (Hepatotoxicity [6]): Inactive
- LDH Increase - Index Value (Hepatotoxicity [6]): 2.7
- LDH Increase - Number of Reports (Hepatotoxicity [6]): < 4

Structure (SMILES): CC(C(=O)O)c1cccc(C(=O)c2ccccc2)c1 (stereo not drawn) [KETOPROFEN]
- Composite Activity - Active (Hepatotoxicity [1]): 0
- Composite Activity - Marginal (Hepatotoxicity [1]): 0
- Composite Activity - Score (Hepatotoxicity [1]): Inactive
- GGT Increase - Activity Score (Hepatotoxicity [2]): Inactive
- GGT Increase - Index Value (Hepatotoxicity [2]): 0
- GGT Increase - Number of Reports (Hepatotoxicity [2]): < 4
- Alkaline Phosphatase Increase - Activity Score (Hepatotoxicity [3]): Inactive
- Alkaline Phosphatase Increase - Index Value (Hepatotoxicity [3]): 0.6
- Alkaline Phosphatase Increase - Number of Reports (Hepatotoxicity [3]): < 4
- SGOT Increase - Activity Score (Hepatotoxicity [4]): Inactive
- SGOT Increase - Index Value (Hepatotoxicity [4]): 0.6
- SGOT Increase - Number of Reports (Hepatotoxicity [4]): < 4
- SGPT Increase - Activity Score (Hepatotoxicity [5]): Inactive
- SGPT Increase - Index Value (Hepatotoxicity [5]): 0.4
- SGPT Increase - Number of Reports (Hepatotoxicity [5]): < 4
- LDH Increase - Activity Score (Hepatotoxicity [6]): Inactive
- LDH Increase - Index Value (Hepatotoxicity [6]): 0.4
- LDH Increase - Number of Reports (Hepatotoxicity [6]): < 4

Structure (SMILES): O=C(c1ccccc1)c1ccc2n1CCC2C(=O)O (stereo not drawn) [KETOROLAC]
- Composite Activity - Active (Hepatotoxicity [1]): 0
- Composite Activity - Marginal (Hepatotoxicity [1]): 0
- Composite Activity - Score (Hepatotoxicity [1]): Inactive
- GGT Increase - Activity Score (Hepatotoxicity [2]): Inactive
- GGT Increase - Index Value (Hepatotoxicity [2]): 0.5
- GGT Increase - Number of Reports (Hepatotoxicity [2]): < 4
- Alkaline Phosphatase Increase - Activity Score (Hepatotoxicity [3]): Inactive
- Alkaline Phosphatase Increase - Index Value (Hepatotoxicity [3]): 1.4
- Alkaline Phosphatase Increase - Number of Reports (Hepatotoxicity [3]): >= 4
- SGOT Increase - Activity Score (Hepatotoxicity [4]): Inactive
- SGOT Increase - Index Value (Hepatotoxicity [4]): 0.9
- SGOT Increase - Number of Reports (Hepatotoxicity [4]): >= 4
- SGPT Increase - Activity Score (Hepatotoxicity [5]): Inactive
- SGPT Increase - Index Value (Hepatotoxicity [5]): 0.6
- SGPT Increase - Number of Reports (Hepatotoxicity [5]): >= 4
- LDH Increase - Activity Score (Hepatotoxicity [6]): Inactive
- LDH Increase - Index Value (Hepatotoxicity [6]): 0.5
- LDH Increase - Number of Reports (Hepatotoxicity [6]): >= 4
